Experiments:
[1] = biological target: GDP-bound NRAS wild-type protein (Homo sapiens, UniProt P01111); assay: Binding to NRAS by surface plasmon resonance (SPR), Single Cycle Kinetics; details: SPR; for NRAS/KRAS (ratio of KD value with respect to NRAS to KD value with respect to KRAS) / NRAS/KRAS (ratio of KD value for NRAS to KD value for KRAS): GDP-bound NRAS wild-type vs GDP-bound KRAS wild-type; for NRAS/KRAS (ratio of KD value with respect to GDP-bound NRAS wild-type protein to KD value with respect to KRAS): GDP-bound wild-type proteins
[2] = biological target: GDP-bound HRAS wild-type protein (Homo sapiens, UniProt P01112); assay: Binding to HRAS by surface plasmon resonance (SPR), Single Cycle Kinetics; details: SPR; for HRAS/KRAS (ratio of KD value with respect to HRAS to KD value with respect to KRAS) / HRAS/KRAS (ratio of KD value for HRAS to KD value for KRAS): GDP-bound HRAS wild-type vs GDP-bound KRAS wild-type; for HRAS/KRAS (ratio of KD value with respect to GDP-bound HRAS wild-type protein to KD value with respect to KRAS): GDP-bound wild-type proteins
Chain of GDP-bound HRAS wild-type protein (P01112 whole entry): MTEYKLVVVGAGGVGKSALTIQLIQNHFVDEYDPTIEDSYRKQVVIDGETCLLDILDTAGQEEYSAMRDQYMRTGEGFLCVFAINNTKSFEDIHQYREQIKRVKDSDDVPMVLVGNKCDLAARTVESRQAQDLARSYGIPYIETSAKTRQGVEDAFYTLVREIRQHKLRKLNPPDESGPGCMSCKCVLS

Chain of GDP-bound NRAS wild-type protein (P01111 whole entry): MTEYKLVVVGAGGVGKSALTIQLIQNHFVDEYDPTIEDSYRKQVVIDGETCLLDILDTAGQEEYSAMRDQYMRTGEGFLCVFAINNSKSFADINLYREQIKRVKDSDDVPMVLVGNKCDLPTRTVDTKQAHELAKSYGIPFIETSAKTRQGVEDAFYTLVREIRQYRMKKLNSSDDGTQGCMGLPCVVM

CCC[C@H]1C(=O)N[C@@H]([C@@H](C)CC)C(=O)N(C)CC(=O)N(C)[C@H]2C/C=C\CCN(C2=O)[C@@H](Cc2ccc(C(F)(F)F)cc2)C(=O)N(C)CC(=O)N[C@@H](CCc2cc(F)c(C(F)(F)F)c(F)c2)C(=O)N2C[C@H](OCC)C[C@H]2C(=O)NC2(CCC2)C(=O)N(C)[C@@H](C2CCCC2)C(=O)N(C)[C@H](C(=O)N(C)CCC)CC(=O)N1C [PP1389]
NRAS/KRAS (ratio of KD value for GDP-bound NRAS wild-type protein to KD value for KRAS) ([1]; KD ratio class): AA (a compound having 20 or more is denoted as AA)
HRAS/KRAS (ratio of KD value for GDP-bound HRAS wild-type protein to KD value for KRAS) ([2]; KD ratio class): A (a compound having 10 or more and less than 20 is denoted as A)

CCCO[C@@H]1CCN2C(=O)[C@H](CCc3cc(F)c(C(F)(F)F)c(F)c3)NC(=O)CN(C)C(=O)[C@H](Cc3ccc(C(F)(F)F)cc3)N3CCCCC[C@@H](C3=O)N(C)C(=O)CN(C)C(=O)[C@H]([C@@H](C)CC)NC(=O)[C@H](CC(C)C)N(C)C(=O)C[C@@H](C(=O)N3CCOCC3)N(C)C(=O)[C@H](C3CCCC3)N(C)C(=O)C3(CCC3)NC(=O)[C@H]12 [PP1083]
NRAS/KRAS (ratio of KD value with respect to NRAS to KD value with respect to KRAS) ([1]; KD ratio): B (a compound having 3 or more and less than 10 is denoted as B)
HRAS/KRAS (ratio of KD value with respect to HRAS to KD value with respect to KRAS) ([2]; KD ratio): B (a compound having 3 or more and less than 10 is denoted as B)

CC[C@H](C)[C@@H]1NC(=O)[C@@H]2CCC/C=C/c3ccc(cc3)C[C@@H](C(=O)N(C)CC(=O)N[C@@H](CCc3ccc(Cl)c(Cl)c3)C(=O)N3C[C@H](OC4CCCC4)C[C@H]3C(=O)NC3(CC(C)(C)C3)C(=O)N(C)[C@@H](C3CCCC3)C(=O)N(C)[C@H](C(=O)N3CCCC3)CC(=O)N2C)N2CC/C=C\C[C@@H](C2=O)N(C)C(=O)CN(C)C1=O [PP3054]
NRAS/KRAS (ratio of KD value with respect to GDP-bound NRAS wild-type protein to KD value with respect to KRAS) [1]: A (a compound having 10 or more and less than 20 is denoted as A)
HRAS/KRAS (ratio of KD value with respect to GDP-bound HRAS wild-type protein to KD value with respect to KRAS) [2]: A (a compound having 10 or more and less than 20 is denoted as A)

CCO[C@@H]1C[C@H]2C(=O)NC3(CC(C)(C)C3)C(=O)N(C)[C@@H](C3CCCC3)C(=O)N(C)[C@H](C(=O)N(C)C)CC(=O)N(C)[C@H]3CCCCCCc4ccc(cc4)C[C@@H](C(=O)N(C)CC(=O)N[C@@H](CCc4ccc(C(F)(F)F)c(OC)c4)C(=O)N2C1)N1CC/C=C\C[C@@H](C1=O)N(C)C(=O)CN(C)C(=O)[C@H]([C@@H](C)CC)NC3=O [PP3066]
NRAS/KRAS (ratio of KD value with respect to GDP-bound NRAS wild-type protein to KD value with respect to KRAS) [1]: A (a compound having 10 or more and less than 20 is denoted as A)
HRAS/KRAS (ratio of KD value with respect to GDP-bound HRAS wild-type protein to KD value with respect to KRAS) [2]: B (a compound having 3 or more and less than 10 is denoted as B)

CCO[C@@H]1C[C@H]2C(=O)NC3(CCC3)C(=O)N(C)[C@@H](C3CCCC3)C(=O)N(C)[C@H](C(=O)N(C)C)CC(=O)N(C)[C@@H](Cc3ccc(Cl)c(Cl)c3)C(=O)N[C@@H]([C@@H](C)CC)C(=O)N(C)CC(=O)N(C)[C@H]3CCCCCN(C3=O)[C@@H](Cc3ccc(C(F)(F)F)cc3)C(=O)N(C)CC(=O)N[C@@H](CCc3cc(F)c(C(F)(F)F)c(F)c3)C(=O)N2C1 [PP1174]
NRAS/KRAS (ratio of KD value with respect to NRAS to KD value with respect to KRAS) ([1]; KD ratio): B (a compound having 3 or more and less than 10 is denoted as B)
HRAS/KRAS (ratio of KD value with respect to HRAS to KD value with respect to KRAS) ([2]; KD ratio): B (a compound having 3 or more and less than 10 is denoted as B)

CCCN(C)C(=O)[C@@H]1CC(=O)N(C)[C@@H](CC(F)F)C(=O)N[C@@H]([C@@H](C)CC)C(=O)N(C)CC(=O)N(C)[C@H]2C/C=C\CCN(C2=O)[C@@H](Cc2ccc(C(F)(F)F)cc2)C(=O)N(C)CC(=O)N[C@@H](CCc2ccc(C(F)(F)F)c(OC)c2)C(=O)N2C[C@H](OCC)C[C@H]2C(=O)NC2(CCC2)C(=O)N(C)[C@@H](C2CCCC2)C(=O)N1C [PP2013]
NRAS/KRAS (ratio of KD value for NRAS to KD value for KRAS) ([1]; KD ratio): A (a compound having 10 or more and less than 20 is denoted as A)
HRAS/KRAS (ratio of KD value for HRAS to KD value for KRAS) ([2]; KD ratio): B (a compound having 3 or more and less than 10 is denoted as B)

CCO[C@@H]1C[C@H]2C(=O)N(C)C3(CC(C)(C)C3)C(=O)N(C)[C@@H](C3CCCC3)C(=O)N(C)[C@H](C(=O)N(C)C)CC(=O)N(C)[C@H]3CCC/C=C/c4ccc(cc4)C[C@@H](C(=O)N(C)CC(=O)N[C@@H](CCc4ccc(Cl)c(Cl)c4)C(=O)N2C1)N1CC/C=C\C[C@@H](C1=O)N(C)C(=O)CN(C1CC1)C(=O)[C@H]([C@@H](C)CC)NC3=O [PP3061]
NRAS/KRAS (ratio of KD value with respect to GDP-bound NRAS wild-type protein to KD value with respect to KRAS) [1]: A (a compound having 10 or more and less than 20 is denoted as A)
HRAS/KRAS (ratio of KD value with respect to GDP-bound HRAS wild-type protein to KD value with respect to KRAS) [2]: A (a compound having 10 or more and less than 20 is denoted as A)

CCO[C@@H]1C[C@H]2C(=O)NC3(CCC3)C(=O)N(C)[C@@H](C3CCCC3)C(=O)N(C)[C@H](C(=O)N3CCOCC3)CC(=O)N(C)[C@@H](CC(C)C)C(=O)N[C@@H]([C@@H](C)CC)C(=O)N(C)CC(=O)N(C)[C@H]3CCCCCN(C3=O)[C@@H](Cc3nccs3)C(=O)N(C)CC(=O)N[C@@H](CCc3cc(F)c(C(F)(F)F)c(F)c3)C(=O)N2C1 [PP0923]
NRAS/KRAS (ratio of KD value with respect to NRAS to KD value with respect to KRAS) ([1]; KD ratio): B (a compound having 3 or more and less than 10 is denoted as B)
HRAS/KRAS (ratio of KD value with respect to HRAS to KD value with respect to KRAS) ([2]; KD ratio): B (a compound having 3 or more and less than 10 is denoted as B)

CCO[C@@H]1C[C@H]2C(=O)NC3(CCC3)C(=O)N(C)[C@@H](C3CCCC3)C(=O)N(C)[C@H](C(=O)N(C)C)CC(=O)N(C)[C@@H](CC)C(=O)N[C@@H]([C@@H](C)CC)C(=O)N(C)CC(=O)N(C)[C@H]3CCCCCN(C3=O)[C@@H](Cc3ccc(F)c(F)c3)C(=O)N(C)CC(=O)N[C@@H](CCc3cc(F)c(C(F)(F)F)c(F)c3)C(=O)N2C1 [PP0907]
NRAS/KRAS (ratio of KD value with respect to NRAS to KD value with respect to KRAS) ([1]; KD ratio): B (a compound having 3 or more and less than 10 is denoted as B)
HRAS/KRAS (ratio of KD value with respect to HRAS to KD value with respect to KRAS) ([2]; KD ratio): B (a compound having 3 or more and less than 10 is denoted as B)

CCO[C@H](C)[C@@H]1NC(=O)[C@H](CC(C)C)N(C)C(=O)C[C@@H](C(=O)N(C)CC)N(C)C(=O)[C@H](C2CCCC2)N(C)C(=O)C2(CC(C)(C)C2)NC(=O)[C@@H]2C[C@H](C)CN2C(=O)[C@H](CCc2cc(F)c(C(F)(F)F)c(F)c2)NC(=O)CN(C)C(=O)[C@H](Cc2ccc(C)cc2)N2CC/C=C\C[C@@H](C2=O)N(C)C(=O)CN(C)C1=O [PP2414]
NRAS/KRAS (ratio of KD value with respect to NRAS to KD value with respect to KRAS) [1]: A (a compound having 10 or more and less than 20 is denoted as A)
HRAS/KRAS (ratio of KD value with respect to HRAS to KD value with respect to KRAS) [2]: A (a compound having 10 or more and less than 20 is denoted as A)

CCO[C@@H]1C[C@H]2C(=O)N(C)C3(CCCC3)C(=O)N(C)[C@@H](C3CCCC3)C(=O)N(C)[C@H](C(=O)N(C)C)CC(=O)N(C)[C@@H](CC)C(=O)N[C@@H]([C@@H](C)CC)C(=O)N3CCC[C@H]3C(=O)N(C)[C@H]3C/C=C\CCN(C3=O)[C@@H](Cc3ccc(C)cc3)C(=O)N(C)CC(=O)N[C@@H](CCc3cc(F)c(C(F)(F)F)c(F)c3)C(=O)N2C1 [PP1810]
NRAS/KRAS (ratio of KD value for NRAS to KD value for KRAS) ([1]; KD ratio): A (a compound having 10 or more and less than 20 is denoted as A)
HRAS/KRAS (ratio of KD value for HRAS to KD value for KRAS) ([2]; KD ratio): B (a compound having 3 or more and less than 10 is denoted as B)

CC[C@H](C)[C@@H]1NC(=O)[C@H](CC(C)C)N(C)C(=O)C[C@@H](C(=O)N2CCOCC2)N(CC)C(=O)[C@H](C2CCCC2)N(C)C(=O)C2(CCCC2)NC(=O)[C@@H]2CCCN2C(=O)[C@H](CCc2ccc(C(F)(F)F)c(Cl)c2)NC(=O)CN(C)C(=O)[C@H](Cc2ccc(F)cc2)N2CCCCC[C@@H](C2=O)N(C)C(=O)CN(C)C1=O [PP0970]
NRAS/KRAS (ratio of KD value with respect to NRAS to KD value with respect to KRAS) ([1]; KD ratio): B (a compound having 3 or more and less than 10 is denoted as B)
HRAS/KRAS (ratio of KD value with respect to HRAS to KD value with respect to KRAS) ([2]; KD ratio): B (a compound having 3 or more and less than 10 is denoted as B)

CC[C@H](C)[C@@H]1NC(=O)[C@H](CC)N(C)C(=O)C[C@@H](C(=O)N(C)C)N(C)C(=O)[C@H](C2CCCC2)N(C)C(=O)C2(CCC2)NC(=O)[C@@H]2CSCCN2C(=O)[C@H](CCc2cc(F)c(C(F)(F)F)c(F)c2)NC(=O)CN(C)C(=O)[C@H](Cc2ccc(C(F)(F)F)cc2)N2CC/C=C\C[C@@H](C2=O)N(C)C(=O)CN(C)C1=O [PP1137]
NRAS/KRAS (ratio of KD value with respect to NRAS to KD value with respect to KRAS) ([1]; KD ratio): AA (a compound having 20 or more is denoted as AA)
HRAS/KRAS (ratio of KD value with respect to HRAS to KD value with respect to KRAS) ([2]; KD ratio): A (a compound having 10 or more and less than 20 is denoted as A)

CCCO[C@@H]1C[C@H]2C(=O)NC3(CC(C)(C)C3)C(=O)N(C)[C@@H](C3CCCC3)C(=O)N(C)[C@H](C(=O)N(C)CC)CC(=O)N(C)[C@H]3CCCc4ccc(cc4)C[C@@H](C(=O)N(C)CC(=O)N[C@@H](CCc4ccc(Cl)c(Cl)c4)C(=O)N2C1)N1CC/C=C\C[C@@H](C1=O)N(C)C(=O)CN(C)C(=O)[C@H]([C@@H](C)CC)NC3=O [PP3089]
NRAS/KRAS (ratio of KD value with respect to GDP-bound NRAS wild-type protein to KD value with respect to KRAS) [1]: B (a compound having 3 or more and less than 10 is denoted as B)
HRAS/KRAS (ratio of KD value with respect to GDP-bound HRAS wild-type protein to KD value with respect to KRAS) [2]: B (a compound having 3 or more and less than 10 is denoted as B)

CCCOC[C@H]1C(=O)N[C@@H]([C@@H](C)CC)C(=O)N2CCC[C@H]2C(=O)N(C)[C@H]2C/C=C\CCN(C2=O)[C@@H](Cc2ccc(C)cc2)C(=O)N(C)CC(=O)N[C@@H](CCc2cc(F)c(C(F)(F)F)c(F)c2)C(=O)N2C[C@H](C)C[C@H]2C(=O)NC2(CC(C)(C)C2)C(=O)N(C)[C@@H](C2CCCC2)C(=O)N(C)[C@H](C(=O)N(C)CC)CC(=O)N1C [PP2430]
NRAS/KRAS (ratio of KD value with respect to NRAS to KD value with respect to KRAS) [1]: AA (a compound having 20 or more is denoted as AA)
HRAS/KRAS (ratio of KD value with respect to HRAS to KD value with respect to KRAS) [2]: A (a compound having 10 or more and less than 20 is denoted as A)
